One test has as its target T1, NKTR (Homo sapiens, UniProt P30414).
T1 sequence (P30414 1-1462): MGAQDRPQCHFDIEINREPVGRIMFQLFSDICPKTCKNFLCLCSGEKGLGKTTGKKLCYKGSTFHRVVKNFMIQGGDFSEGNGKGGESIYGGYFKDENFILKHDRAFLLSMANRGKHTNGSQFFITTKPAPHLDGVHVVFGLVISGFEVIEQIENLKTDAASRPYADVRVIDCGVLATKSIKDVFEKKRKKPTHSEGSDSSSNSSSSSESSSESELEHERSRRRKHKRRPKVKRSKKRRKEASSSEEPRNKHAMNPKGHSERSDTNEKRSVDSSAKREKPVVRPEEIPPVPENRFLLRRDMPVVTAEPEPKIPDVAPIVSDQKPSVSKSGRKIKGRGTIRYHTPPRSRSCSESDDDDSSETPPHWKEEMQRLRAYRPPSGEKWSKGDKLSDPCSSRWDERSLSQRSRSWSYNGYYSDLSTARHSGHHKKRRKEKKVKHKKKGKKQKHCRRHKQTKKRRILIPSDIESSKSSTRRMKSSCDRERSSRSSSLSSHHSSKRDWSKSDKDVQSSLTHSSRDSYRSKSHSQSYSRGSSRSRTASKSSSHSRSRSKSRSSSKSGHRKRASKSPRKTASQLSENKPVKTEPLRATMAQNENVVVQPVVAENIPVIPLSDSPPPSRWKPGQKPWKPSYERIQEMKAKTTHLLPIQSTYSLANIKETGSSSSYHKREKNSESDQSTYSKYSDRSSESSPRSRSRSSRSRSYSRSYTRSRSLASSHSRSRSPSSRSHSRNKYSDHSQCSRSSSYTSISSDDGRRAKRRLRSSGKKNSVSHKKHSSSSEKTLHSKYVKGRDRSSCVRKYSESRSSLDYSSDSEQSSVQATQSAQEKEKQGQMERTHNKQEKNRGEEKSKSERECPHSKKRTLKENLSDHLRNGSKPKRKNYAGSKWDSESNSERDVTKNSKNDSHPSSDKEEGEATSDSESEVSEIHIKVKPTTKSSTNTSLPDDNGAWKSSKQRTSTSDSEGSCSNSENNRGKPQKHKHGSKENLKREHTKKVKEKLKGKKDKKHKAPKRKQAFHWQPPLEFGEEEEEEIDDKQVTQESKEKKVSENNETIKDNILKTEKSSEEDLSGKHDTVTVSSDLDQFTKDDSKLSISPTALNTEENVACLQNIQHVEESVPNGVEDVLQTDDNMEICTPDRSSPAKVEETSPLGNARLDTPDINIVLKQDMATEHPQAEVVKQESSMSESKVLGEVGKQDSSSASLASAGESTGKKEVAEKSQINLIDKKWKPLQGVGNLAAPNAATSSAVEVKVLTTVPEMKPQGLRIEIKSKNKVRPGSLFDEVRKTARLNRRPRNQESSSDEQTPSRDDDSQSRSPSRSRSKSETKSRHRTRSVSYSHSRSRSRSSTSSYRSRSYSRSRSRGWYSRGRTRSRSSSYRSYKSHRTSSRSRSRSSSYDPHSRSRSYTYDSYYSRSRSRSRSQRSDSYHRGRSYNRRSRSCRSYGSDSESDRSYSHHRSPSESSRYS
Nature of the test: chymotrypsin coupled PPIase assay, NKTR inhibition. The class given is biochemical. To be noted: result in words. As for the experimental part:
Following the synthesis of the indicated library members, in vitro inhibition (IC50) assays of these hits were conducted to obtain IC50 inhibitory data. For the IC50 assays, a chymotrypsin coupled PPIase assay using Suc-AAPF-AMC as the peptide substrate was used, whereby isomerization of a peptide substrate Suc-AAPF-AMC from the cis to trans conformation allowed for proteolysis via excess a-chymotrypsin, releasing the C-terminal coumarin fluorophore. […] Other non-inhibitor library members were also checked for binding via SPR, but produced the same profile as the prolyl isomerase assay.
Subsequently, to determine if the compounds could both access the S2 pocket and display CypD specificity, JOMBtrans and compound 49 were screened against the 10 other cyclophilins with reported prolyl isomerase activity. […] Co-crystal structures of JOMBtrans and 49 were solved with CypD. […] Three further H-bonds with the macrocycle's backbone and CypD were observed along with a cation-n interaction. […] The benzyl group on the piperidine ring altered the conformation of the macrocycle to open up two new hydrogen bonding interactions with CypD. […] This improvement in specificity compared to JOMBtrans signified that more CypD specific compounds can be garnered by derivatization into the S2 pocket.

The subject of test [1] is 10 other cyclophilins with reported prolyl isomerase activity. Nature of the test: cyclophilin specificity screen: CypD against the other cyclophilins. The class given is biochemical. Particulars: result in words. An excerpt: The selectivity of a compound described herein in inhibiting the activity of a first cyclophilin (e.g., CypD) over a second cyclophilin may be measured by the quotient of the IC50 value of the compound in inhibiting the activity of the second cyclophilin over the IC50 value of the compound in inhibiting the activity of the first cyclophilin. The selectivity of a compound described herein in modulating the activity of a first cyclophilin over a second cyclophilin may also be measured by the quotient of the Kd value of an adduct of the compound and the second cyclophilin over the Kd value of an adduct of the compound and the first cyclophilin (e.g., CypD). […] In certain embodiments, selectivity for inhibiting a first cyclophilin over other cyclophilins is measured by Surface Plasmon Resonance (SPR) assays as disclosed in the Examples.
Following the synthesis of the indicated library members, in vitro inhibition (IC50) assays of these hits were conducted to obtain IC50 inhibitory data. For the IC50 assays, a chymotrypsin coupled PPIase assay using Suc-AAPF-AMC as the peptide substrate was used, whereby isomerization of a peptide substrate Suc-AAPF-AMC from the cis to trans conformation allowed for proteolysis via excess a-chymotrypsin, releasing the C-terminal coumarin fluorophore.
Subsequently, to determine if the compounds could both access the S2 pocket and display CypD specificity, JOMBtrans and compound 49 were screened against the 10 other cyclophilins with reported prolyl isomerase activity. […] Co-crystal structures of JOMBtrans and 49 were solved with CypD.

The source of these data is patent US20230117680A1, “CYCLOPHILIN D INHIBITORS AND USES THEREOF” (The Broad Institute, Inc., priority 2019, published 2023).

Turning to `NCCOCCNC(=O)[C@@H]1CCNC(=O)/C=C/C(=O)N2CCC[C@H](C2)C(=O)N[C@@H](Cc2ccc(C(=O)c3ccccc3)cc2)C(=O)NCc2ccccc2CC(=O)N1` [compound 27], the “inhibition of NKTR” value against NKTR is given as “Almost complete ablation of inhibition profiles”. Besides, the “specificity / selectivity profile for CypD (in words)” value in test [1] is “improvement in specificity for CypD”.
